Source: patent US20250136606A1, “MODULATORS OF TRPML, THEIR COMPOSITIONS AND METHODS OF USE” (Caraway Therapeutics, Inc., priority 2021, published 2025)
Read-outs that look alike come from different tables or passages of the source.

Tests used:
[1] = target: TRPML1 (Homo sapiens, UniProt Q9GZU1); assay: Fluorescent TRPML1 assay (Fluo4-AM calcium fluorescence in doxycycline-induced HEK-293 Trex cells); type: cell-based
Method: (§1) HEK-293 Trex cells were stably transfected with a construct consisting of the human coding sequence for TRPML1 cloned into the […] plasmid pCDNA5 T/O. Mutations were introduced into the TRPML1 sequence to facilitate expression on the cell surface (Silvia Vergarajauregui, Rosa Puertollano, Traffic. 2006 March; 7(3): 337-353). Briefly, the cells are cultured in 150 mm round tissue culture dishes containing 20 mL of media. The day before the assay the cells are rinsed with DPBS-Ca—Mg and then treated briefly with Trypsin-EDTA. The Trypsin-EDTA is diluted with growth media, and cells are counted. 38×10^6 cells are re-plated into 150 mm round tissue culture dishes in media containing 0.5 ug/mL doxycycline to induce expression of hTRPML1.
(§2) The day of the experiment cells are lifted from the plates as above and collected by centrifugation. The cells are then suspended in dye loading buffer consisting of Ringer's solution supplemented with 0.1% Pluronic Acid and 1 micromolar Fluo4-AM dye. Cells are loaded for ˜60 minutes in the dark with occasional mixing. The cells are collected by centrifugation, the loading media aspirated, and the cells resuspended in 25 mL Ringer's solution and incubated ˜60 minutes in the dark. The cells are again collected by centrifugation, rinsed in Ringer's Solution and resuspended to […] in modified Ringer's solution containing 10 mM calcium.
(§3) Compounds are dissolved to a concentration of 10 millimolar with DMSO. Compound plates are created by dispensing compounds into 384 well black wall clear bottom plates (Greiner 781091). Positive and negative controls are included on each plate. Typically, different amounts of each compound are tested ranging from 100 nanoMoles (20 micromolar final concentration) decreasing in half-log steps to 31 picoMoles (6 nanomolar final concentration). Each concentration is typically tested in triplicate.
(§4) 50 microliters of dye-loaded cells are dispensed into each well of the compound assay plate created above. The fluorescence in each well is then determined with an excitation wavelength of 480 nm and an emission wavelength of 540 nm using either a Molecular Devices SpectraMax multimode plate reader or a Hamamatsu FDSS/uCell plate imager.
(§5) The resulting fluorescence for each well is exported as an ascii file and loaded into our LIMS for analysis. The percent activity of each compound at each concentration is determined by comparison to the positive and negative control wells included in each plate.
(§6) EC50 values were calculated using a non-linear regression of Prism. In the table, “A” indicates an EC50 of less than 100 nM, “B” indicates an EC50 range from 100 nM to 500 nM; “C” indicates an EC50 range from 500 nM to 2 μM; and “D” indicates an EC50 greater than 2 μM.

[2] = target: T1, TRPML3 (Homo sapiens, UniProt Q8TDD5); assay: Fluorescent TRPML3 assay (performed as for TRPML1, substituting the TRPML3 subtype); type: cell-based
T1 construct: expressed in transfected cells
T1 sequence (Q8TDD5 1-553): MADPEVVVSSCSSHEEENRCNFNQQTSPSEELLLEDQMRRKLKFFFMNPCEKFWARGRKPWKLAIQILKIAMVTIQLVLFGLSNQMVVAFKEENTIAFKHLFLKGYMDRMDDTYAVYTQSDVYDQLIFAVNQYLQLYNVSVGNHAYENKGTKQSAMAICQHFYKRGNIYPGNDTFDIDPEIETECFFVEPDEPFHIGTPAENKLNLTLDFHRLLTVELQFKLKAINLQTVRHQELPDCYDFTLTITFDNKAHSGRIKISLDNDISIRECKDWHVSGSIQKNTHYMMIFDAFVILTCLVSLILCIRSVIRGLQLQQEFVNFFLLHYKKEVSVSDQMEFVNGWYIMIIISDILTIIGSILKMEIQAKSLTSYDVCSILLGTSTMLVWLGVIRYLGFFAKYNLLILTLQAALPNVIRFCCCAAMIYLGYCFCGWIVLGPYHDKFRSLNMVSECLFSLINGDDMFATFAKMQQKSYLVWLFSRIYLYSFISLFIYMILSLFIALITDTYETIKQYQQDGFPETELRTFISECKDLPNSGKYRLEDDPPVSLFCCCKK
Method: as §1, §2, §3, §4, §5
TRPML2 and TRPML3 Assays Assays for TRPML2 and TRPML3 were performed as above for TRPML1, by substituting the appropriate TRPML2 or TRPML3 subtype for the TRPML1.
as §6

Chain of TRPML1 (Q9GZU1 whole entry L15A/L16A/L577A/L578A, form open): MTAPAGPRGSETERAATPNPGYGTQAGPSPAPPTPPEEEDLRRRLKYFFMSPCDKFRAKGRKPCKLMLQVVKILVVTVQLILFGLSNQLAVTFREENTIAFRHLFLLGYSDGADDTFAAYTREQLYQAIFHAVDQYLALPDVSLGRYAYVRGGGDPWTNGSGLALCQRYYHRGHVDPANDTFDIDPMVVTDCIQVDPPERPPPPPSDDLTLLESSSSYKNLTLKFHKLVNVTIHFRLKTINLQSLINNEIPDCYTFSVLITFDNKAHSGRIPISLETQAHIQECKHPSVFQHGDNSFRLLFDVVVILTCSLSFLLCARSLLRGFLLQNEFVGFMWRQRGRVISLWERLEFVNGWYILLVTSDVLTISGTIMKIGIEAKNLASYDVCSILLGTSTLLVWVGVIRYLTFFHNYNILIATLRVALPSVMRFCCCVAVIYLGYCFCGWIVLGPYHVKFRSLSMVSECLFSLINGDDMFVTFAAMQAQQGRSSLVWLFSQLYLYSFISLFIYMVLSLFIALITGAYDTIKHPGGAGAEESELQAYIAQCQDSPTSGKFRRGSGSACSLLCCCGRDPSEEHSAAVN

SMILES	EC50 ([1]; fluorescent calcium assay)	EC50 ([2]; fluorescent calcium assay)	EC50 [1]	EC50 [2]
C[C@H]1CN(C(=O)OC(C)(C)C)CCN1c1ncnc2c1c(N1CCOCC1)cn2-c1cc(C#N)ccn1 [Compound 380, tert-butyl (S)-4-(7-(4-cyanopyridin-2-yl)-5-morpholino-7H-pyrrolo[2,3-d]pyrimidin-4-yl)-3-methylpiperazine-1-carboxylate]	0.1 to 0.5 µM	0.5 to 2 µM	–	–
CC(C)C(=O)N1CCN(c2nccc3c2c(-c2ccccc2F)cn3-c2cc(C#N)ccn2)[C@@H](C)C1 [Compound 450, (S)-2-(3-(2-fluorophenyl)-4-(4-isobutyryl-2-methylpiperazin-1-yl)-1H-pyrrolo[3,2-c]pyridin-1-yl)isonicotinonitrile]	< 0.1 µM	0.1 to 0.5 µM	–	–
C[C@@H]1CN(c2ncnc3c2c(N2CCC[C@H]2CO)cn3-c2cccc(Cl)c2)CCN1C(=O)OC(C)(C)C [Compound 283, tert-butyl (R)-4-(7-(3-chlorophenyl)-5-((S)-2-(hydroxymethyl)pyrrolidin-1-yl)-7H-pyrrolo[2,3-d]pyrimidin-4-yl)-2-methylpiperazine-1-carboxylate]	> 2 µM	0.1 to 0.5 µM	–	–
C[C@H]1CN(C(=O)OC(C)(C)C)CCN1c1ncnc2c1c(C1CC1)cn2-c1ncc(C#N)s1 [Compound 397, tert-butyl (S)-4-(7-(5-cyanothiazol-2-yl)-5-cyclopropyl-7H-pyrrolo[2,3-d]pyrimidin-4-yl)-3-methylpiperazine-1-carboxylate]	> 2 µM	0.1 to 0.5 µM	–	–
CC(C)(C)OC(=O)N1CCN(c2ncnc3c2c(-c2ccccc2F)cn3-c2cc(C#N)ccn2)CC12CC2 [Compound 392, tert-butyl 7-(7-(4-cyanopyridin-2-yl)-5-(2-fluorophenyl)-7H-pyrrolo[2,3-d]pyrimidin-4-yl)-4,7-diazaspiro[2.5]octane-4-carboxylate]	0.1 to 0.5 µM	< 0.1 µM	–	–
C[C@@H]1CN(c2ncnc3c2c(OC2CCC2)cn3-c2cc(C#N)ccn2)[C@@H](C)CN1C(=O)OC(C)(C)C [Compound 508, tert-butyl (2R,5S)-4-(7-(4-cyanopyridin-2-yl)-5-cyclobutoxy-7H-pyrrolo[2,3-d]pyrimidin-4-yl)-2,5-dimethylpiperazine-1-carboxylate]	–	–	< 0.1 µM	< 0.1 µM
CCOC(=O)N1C[C@H](C)N(c2ncnc3c2c(-c2cnccn2)cn3-c2cccc(Cl)c2)C[C@H]1C [Compound 125, Ethyl (2R,5S)-4-(7-(3-chlorophenyl)-5-(pyrazin-2-yl)-7H-pyrrolo[2,3-d]pyrimidin-4-yl)-2,5-dimethylpiperazine-1-carboxylate]	0.5 to 2 µM	0.5 to 2 µM	–	–
C[C@@H]1CN(C(=O)OC(C)(C)C)CCN1c1ncnc2c1c(C1CCOCC1)cn2-c1cc(F)cc(F)c1 [Compound 467, tert-butyl (R)-4-(7-(3,5-difluorophenyl)-5-(tetrahydro-2H-pyran-4-yl)-7H-pyrrolo[2,3-d]pyrimidin-4-yl)-3-methylpiperazine-1-carboxylate]	> 2 µM	0.5 to 2 µM	–	–
C[C@@H]1CN(c2ncnc3c2c(C(F)F)cn3-c2cc(F)cc(F)c2)[C@@H](C)CN1C(=O)OC1(C)CC1 [Compound 607, 1-methylcyclopropyl (2R,5S)-4-(5-(difluoromethyl)-7-(3,5-difluorophenyl)-7H-pyrrolo[2,3-d]pyrimidin-4-yl)-2,5-dimethylpiperazine-1-carboxylate]	–	–	0.1 to 0.5 µM	0.5 to 2 µM
C[C@@H]1CN(c2ncnc3c2c(C(F)(F)F)cn3C2CCOCC2)[C@@H](C)CN1C(=O)OC(C)(C)C [Compound 630, tert-butyl (2R,5S)-2,5-dimethyl-4-(7-(tetrahydro-2H-pyran-4-yl)-5-(trifluoromethyl)-7H-pyrrolo[2,3-d]pyrimidin-4-yl)piperazine-1-carboxylate]	–	–	0.5 to 2 µM	> 2 µM
N#Cc1ccnc(-n2cc(-c3ccccc3F)c3c(N4CCN(C(=O)OCC(F)(F)F)CC4)ncnc32)c1 [Compound 373, 2,2,2-trifluoroethyl 4-(7-(4-cyanopyridin-2-yl)-5-(2-fluorophenyl)-7H-pyrrolo[2,3-d]pyrimidin-4-yl)piperazine-1-carboxylate]	0.1 to 0.5 µM	< 0.1 µM	–	–
CC(C)(C)OC(=O)N1CCN(c2ncnc3c2c(C2CC2)cn3-c2cc(C#N)ccn2)CC1(C)C [Compound 395, tert-butyl 4-(7-(4-cyanopyridin-2-yl)-5-cyclopropyl-7H-pyrrolo[2,3-d]pyrimidin-4-yl)-2,2-dimethylpiperazine-1-carboxylate]	< 0.1 µM	< 0.1 µM	–	–
C[C@@H]1CN(c2ncnc3c2c(C(F)(F)F)cn3[C@H]2CCCOC2)[C@@H](C)CN1C(=O)OC(C)(C)C [Compound 631, tert-butyl (2R,5S)-2,5-dimethyl-4-(7-((S)-tetrahydro-2H-pyran-3-yl)-5-(trifluoromethyl)-7H-pyrrolo[2,3-d]pyrimidin-4-yl)piperazine-1-carboxylate]	–	–	0.5 to 2 µM	> 2 µM
CCOC(=O)N1C[C@H](C)N(c2ncnc3c2c(C2CC2)cn3-c2cccc(Cl)c2)[C@@H](C)C1 [Compound 189, ethyl (3S,5S)-4-(7-(3-chlorophenyl)-5-cyclopropyl-7H-pyrrolo[2,3-d]pyrimidin-4-yl)-3,5-dimethylpiperazine-1-carboxylate]	0.1 to 0.5 µM	0.1 to 0.5 µM	–	–
C[C@@H]1CN(c2ncnc3c2c(C2CC2)cn3-c2cc(C#N)ccn2)[C@@H](C)CN1C(=O)OC(C)(C)C [Compound 394, tert-butyl (2R,5S)-4-(7-(4-cyanopyridin-2-yl)-5-cyclopropyl-7H-pyrrolo[2,3-d]pyrimidin-4-yl)-2,5-dimethylpiperazine-1-carboxylate]	< 0.1 µM	< 0.1 µM	–	–
C[C@H]1CN(C(=O)OC(C)(C)C)CCN1c1ncnc2c1c(C1CCOCC1)cn2-c1cccc(F)c1 [Compound 470, tert-butyl (S)-4-(7-(3-fluorophenyl)-5-(tetrahydro-2H-pyran-4-yl)-7H-pyrrolo[2,3-d]pyrimidin-4-yl)-3-methylpiperazine-1-carboxylate]	0.5 to 2 µM	0.5 to 2 µM	–	–
CCOC(=O)N1CCN(c2ncnc3c2c(-c2ccccc2F)cn3-c2cncc(OC)c2)[C@@H](C)C1 [Compound 126, ethyl (S)-4-(5-(2-fluorophenyl)-7-(5-methoxypyridin-3-yl)-7H-pyrrolo[2,3-d]pyrimidin-4-yl)-3-methylpiperazine-1-carboxylate]	0.5 to 2 µM	0.5 to 2 µM	–	–
C[C@@H]1CN(c2ncnc3c2c(C(F)(F)F)cn3[C@H]2CCCC(F)(F)C2)[C@@H](C)CN1C(=O)OC(C)(C)C (single isomer, unassigned) [Compound 713]	–	–	0.5 to 2 µM	0.1 to 0.5 µM
C[C@@H]1CN(c2ncnc3c2c(C(F)(F)F)cn3C2CCCC2)[C@@H](C)CN1C(=O)OC(C)(C)C [Compound 626, tert-butyl (2R,5S)-4-(7-cyclopentyl-5-(trifluoromethyl)-7H-pyrrolo[2,3-d]pyrimidin-4-yl)-2,5-dimethylpiperazine-1-carboxylate]	–	–	< 0.1 µM	0.5 to 2 µM
C[C@H]1CN(C(=O)OC(C)(C)C)CCN1c1ncnc2c1c(C1CC1)cn2C1CCCC(F)(F)C1 (stereo partly drawn) [Compound 382, tert-butyl (3S)-4-(5-cyclopropyl-7-(3,3-difluorocyclohexyl)-7H-pyrrolo[2,3-d]pyrimidin-4-yl)-3-methylpiperazine-1-carboxylate]	0.5 to 2 µM	0.5 to 2 µM	–	–
